This is an account of results in patent US12414940B2, “Method of treating malignant tumor by azabicyclic compound” (TAIHO PHARMACEUTICAL CO., LTD., priority 2018, dated 2025).

Each structure is given as a SMILES string.

The test system of one data set is rat eye tissue. The data set can be described thus: Histopathological study in rat eye tissue (hematoxylin and eosin, TUNEL). The format is in vivo, Sprague-Dawley (SD) rats. Particulars: 10.0 mg/kg/day intravenous three times a week for 2 weeks; eyes collected 24 hours after final dose.
The nature of data set [1]: Quantification of plasma, tumor and retinal tissue exposure in tumor-bearing rats. The format is in vivo, F344 nude rats. The settings on record: intravenous administration, tumor-bearing rats. On the procedure: After the administration, plasma, the retina, and tumor were collected according to a sampling schedule. The retina or tumor samples were homogenized in phosphate-buffered saline. The plasma and the homogenized samples were analyzed by liquid chromatography-tandem mass spectrometry or high-performance liquid chromatography. The pharmacokinetics of the compound 1 were calculated by use of the non-compartmental analysis method (Methods Mol Biol 2012; 929: 377-89).

The test system of data set [2] is progressive or unresectable GIST. The settings on record: group given regorafenib, third-line treatment of progressive or unresectable GIST; cited from earlier work.

On to `CCNC(=O)c1noc(-c2cc(C(C)C)c(O)cc2O)c1-c1ccc(CN2CCOCC2)cc1` [NVP-AUY922, reference compound], for which, in the data set with rat eye tissue, the “histopathological change in the outer nuclear layer of the retina” value was “marked degeneration and disarrangement”; the “number of TUNEL-positive apoptotic cells” value is reported as “considerably increase”. Further, the “presence in the retina 24 hours after administration” value in data set [1] is recorded as “detected from the retina even 24 hours after administration”.

Turning to `CNC(=O)c1cc(Oc2ccc(NC(=O)Nc3ccc(Cl)c(C(F)(F)F)c3)c(F)c2)ccn1` [regorafenib], the “median PFS” value in data set [2] was 4.8 month.
